Data on 17 compounds can be found in patent publication EP0297610A1, “N-[(2,6-disubstituted)phenyl]-urea and carbamate inhibitors of acyl-CoA:cholesterol acyl-transferase” (WARNER-LAMBERT COMPANY, priority 1987, dated 1989).

Experiment [1] addresses acyl-CoA:cholesterol acyltransferase (ACAT). Kind of experiment: In vitro ACAT inhibition: formation of radiolabeled cholesterol oleate from radiolabeled oleic acid in rabbit intestinal microsomes. Type of experiment: biochemical. The settings on record: tissue preparation containing rabbit intestinal microsomes, read-out: IC₅₀.
From the text: The test assesses the ability of a test compound to inhibit the acylation of cholesterol by oleic acid by measuring the amount of radiolabeled cholesterol oleate formed from radiolabeled oleic acid in a tissue preparation containing rabbit intestinal microsomes.
The test system of another experiment is male Sprague-Dawley rats. Description: In vivo screen PCC: total blood cholesterol in cholesterol-fed rats. The settings on record: one week; for % Change: change of total blood cholesterol vs control (181 mg/dl), 0.05% test drug in diet, rats; for Total Blood Cholesterol: male Sprague-Dawley rats, 0.05% test drug admixed into diet with 5.5% peanut oil, 1.5% cholesterol, 0.3%-0.5% cholic acid, Control = 181. An excerpt:
In an in vivo screen, designated PCC, male Sprague-Dawley rats (approximately 200 g body weight) are randomly divided into groups and provided ad libidum a regular chow diet (Purina No. 5002, Ralston Purina Co., 711 West Fuesser Road, Mascoutah, Illinois, 62224, USA), supplemented with 5.5% peanut oil, 1.5% choles-terol, and 0.3%-0.5% cholic acid, together with 0.05% of the test drug which is admixed into the diet. After one week the animals are etherized and a blood sample is taken from the heart and mixed with 0.14% ethylene-diamine tetraacetic acid (EDTA) to measure the total cholesterol.

For the compound `CCCCCCCCCCCCCCNC(=O)Nc1c(CC)cccc1C(C)C` [Example 1, N-[2-Ethyl-6-(1-methylethyl)-phenyl]-N′-tetradecylurea], in experiment [1], the IC50 came to 19 nM. For the same compound, in the experiment with male Sprague-Dawley rats, the “% Change” value is listed as -41% and the “Total Blood Cholesterol” value is 106 (Control = 181) mg/dl.

As to `CCCCCCCC/C=C\CCCCCCCCNC(=O)Nc1c(CC)cccc1C(C)C` [Example 2, (Z)-N-[2-Ethyl-6-(1-methylethyl)-phenyl]-N′-9-octadecenylurea], the IC50 in experiment [1] was 37 nM. In the experiment with male Sprague-Dawley rats, the “% Change” value is listed as -41% and the “Total Blood Cholesterol” value was 107 (Control = 181) mg/dl.

For `CCCCCCCC/C=C\CCCCCCCCNC(=S)Nc1c(C)cccc1C` [Example 3, (Z)-N-(2,6-Dimethylphenyl)-N′-9-octadecenylthiourea], the IC50 in experiment [1] worked out at 10000 nM.

On to `CCCCCCCC/C=C\CCCCCCCCNC(=O)Nc1c(C)cccc1C` [Example 4, (Z)-N-(2,6-Dimethylphenyl)-N′-9-octadecenylurea], for which the IC50 in experiment [1] was 160 nM.

On to `CCCCCCCC/C=C\CCCCCCCCNC(=O)Nc1c(C)cccc1Cl` [Example 5, (Z)-N-(2-Chloro-6-methylphenyl)-N′-9-octadecenylurea], for which, in experiment [1], the IC50 stood at 180 nM.

As for `CCCCCCCC/C=C\CCCCCCCCNC(=O)Nc1c(Cl)cccc1Cl` [Example 6, (Z)-N-(2,6-Dichlorophenyl)-N′-9-octadecenylurea], the IC50 in experiment [1] stood at 400 nM.

As for `CCCCCCCCCCCCCCNC(=O)Nc1c(C)cccc1Cl` [Example 7, N-(2-Chloro-6-methylphenyl)-N′-tetradecylurea], in experiment [1], the IC50 was 27 nM.

As to `CCCCCCCCCCCCCCNC(=O)Nc1c(CC)cccc1CC` [Example 8, N-(2,6-Diethylphenyl)-N′-tetra-decylurea], the IC50 in experiment [1] came to 21 nM.

Regarding `CCCCCCCCCCCCCCCCCCNC(=O)Nc1c(C)cccc1Cl` [Example 10, N-(2-Chloro-6-methylphenyl)-N′-octadecylurea], the IC50 in experiment [1] came to 1100 nM.

For `CCCCCCCCCCCCCCCCCCNC(=O)Nc1c(C(C)C)cccc1C(C)C` [Example 11, N-[2,6-bis(1-Methylethyl)phenyl]-N′-octadecylurea], the IC50 in experiment [1] is 48 nM.

As to `CCCCCCCCCCCCCCNC(=S)Nc1c(CC)cccc1CC` [Example 12, N-(2,6-Diethylphenyl)-N′-tetradecylthiourea], the IC50 in experiment [1] stood at 420 nM.

Regarding `CCCCCCCCCCNC(=O)Nc1c(C(C)C)cccc1C(C)C` [Example 15, N-[2,6-bis(1-Methylethyl)phenyl]-N′-decylurea], the IC50 in experiment [1] turned out to be 56 nM.

`CCCCCCCCCCNC(=O)Nc1c(C)cccc1C(C)C` [Example 17, N-Decyl-N′-[2-methyl-6-(l-methylethyl)-phenyl]urea.]: the IC50 in experiment [1] is 210 nM.

As for `CCCCCCCCCCNC(=O)Nc1c(C)cccc1C(C)(C)C` [Example 18, N-Decyl-N′-[2-(1,1-dimethylethyl)-6-methylphenyl]urea], the IC50 in experiment [1] turned out to be 200 nM.

With `CCCCCCCCCCC(C)(C)NC(=O)Nc1c(CC)cccc1CC` [Example 19, N-(2,6-Diethylphenyl)-N′-(1.1-dimethylundecyl)urea], the IC50 in experiment [1] came out at 52 nM. Also, in the experiment with male Sprague-Dawley rats, the “% Change” value is listed as -60% and the “Total Blood Cholesterol” value is 73 (Control = 181) mg/dl.

Regarding `CCCCCCCCCCC(C)(C)NC(=O)Nc1c(C(C)C)cccc1C(C)C` [Example 20, N-[2.6-bis(1-Methylethyl)phenyl]-N′-(1,1-dimethylundecyl)urea], in experiment [1], the IC50 was determined as 45 nM.

As to `CCCCCCCCCCC1(NC(=O)Nc2c(CC)cccc2CC)CCCC1` [Example 21, N-(1-Decylcyclopentyl)-N′-(2.6-diethylphenyl)urea], the IC50 in experiment [1] worked out at 100 nM.
